Where a name gives a salt, the structure may show the parent alone.
How the values were obtained:
in vivo = format: in vivo, rats (Sprague Dawley); settings: rat, in vivo; rats, oral; read-out: Maximum effect, Dose (maximum nontoxic dose)
Method: (§1) The anti-arrhythmic activity of the compounds is determined by orally administering these to rats (Sprague Dawley, weight: 180-240 g) 45 minutes before the start of narcosis (100 mg/kg of thiobutabarbital, administered intraperitoneally).
(§2) The arrhythmogenous substance used was aconitine, administered by intravenous infusion (at the rate of 0.005 mg/kg. minute) 60 minutes after administration of the benzisothiazole derivative.
(§3) for a quantitative evaluation of the linear relation between the logarithm of the dose (mg/kg) of the test substances and the relative increase in the duration of infusion of aconitine (Δ%), the dose which increases the duration of infusion by 50% (ED 50%) was determined.

[1] = tested on: Aconitineinduced arrhythmia in rats; experiment: in vivo; format: in vivo, rats (Sprague Dawley); settings: oral
Method: as §1, §2, §3

female Swiss mice = settings: LD 50 mice i.p. / ED 50% rats oral
Method: The acute toxicity was determined on groups of 10 or 20 female Swiss mice weighing 20-26 g, using intraperitoneal administration.

c1ccc2c(-c3ccc(C4=NCCCN4)cc3)nsc2c1 [Example 2, 3-[4'-(Tetrahydropyrimidin-2"-yl)-phenyl]-1,2-benzisothiazole hydrochloride]
MTD (in vivo): 215 mg/kg
antiarrhythmic activity, times greater than that of procainamide [1]: about 5 times
therapeutic range (LD 50/ED 50%), times greater than for procainamide (female Swiss mice): 4 times

CC1CN=C(c2ccc(-c3nsc4ccccc34)cc2)N1 (centres unmarked) [Example 3, 3-[4'-(Methylimidazolin-2"-yl)-phenyl]-1,2-benzisothiazole hydrochloride]
MTD (in vivo): 215 mg/kg
antiarrhythmic activity, times greater than that of procainamide [1]: about 5 times
Antiarrhythmic effect, R.E. (relative effect; procainamide = 1.00) ([1]; relative to procainamide): 4.80
therapeutic range (LD 50/ED 50%), times greater than for procainamide (female Swiss mice): 2.8 times

CCN(CC)CCNC(=O)c1ccc(N)cc1 [Procainamide, procainamide, reference compound]
MTD (in vivo): 681 mg/kg

From patent publication US4277477A, “Method of using 1,2-benzisothiazoles” (BASF Aktiengesellschaft, priority 1977, dated 1981)
